Source: US11814445B2, “Cyclic polypeptides for PCSK9 inhibition” (Ra Pharmaceuticals, Inc., priority 2018, dated 2023)
Numbered stars: 1 amine (or outer) side, 2 acyl side, 3 side chain; on linkers, the order of the positions; unused ones are H or OH. Bridge positions count the residues as written; N and C are the ends. Square brackets hold non-standard residues; d marks the D form. Peptide text beside a SMILES is read from it. Phe(4-tBu) = CC(C)(C)c1ccc(C[C@H](N)C(=O)O)cc1; Trp(5-F) = N[C@@H](Cc1c[nH]c2ccc(F)cc12)C(=O)O; X1 = O=C(CCSCc1cccc(CSCCN[*:1])c1)[*:2]; 2Nal = N[C@@H](Cc1ccc2ccccc2c1)C(=O)O; mXylylene = c1cc(C[*:1])cc(C[*:2])c1; Bta = N[C@@H](Cc1csc2ccccc12)C(=O)O; hCha = N[C@@H](CCC1CCCCC1)C(=O)O; Cha = N[C@@H](CC1CCCCC1)C(=O)O; Pip = O=C(O)[C@@H]1CCCCN1; Mpa = O=C(O)CCS

Key:
Type in all cases: binding
PCSK9 [1] = target: T1, PCSK9 (Homo sapiens, UniProt Q8NBP7); assay: PCSK9 Alexa FRET Plus assay (displacement of AlexaFluor647 tagged cyclic peptide Reagent B); conditions: 0.5 nM PCSK9, 960 nM AF cyclic peptide Reagent B
T1 construct: biotin (biotinylated)
T1 sequence (Q8NBP7 153-692): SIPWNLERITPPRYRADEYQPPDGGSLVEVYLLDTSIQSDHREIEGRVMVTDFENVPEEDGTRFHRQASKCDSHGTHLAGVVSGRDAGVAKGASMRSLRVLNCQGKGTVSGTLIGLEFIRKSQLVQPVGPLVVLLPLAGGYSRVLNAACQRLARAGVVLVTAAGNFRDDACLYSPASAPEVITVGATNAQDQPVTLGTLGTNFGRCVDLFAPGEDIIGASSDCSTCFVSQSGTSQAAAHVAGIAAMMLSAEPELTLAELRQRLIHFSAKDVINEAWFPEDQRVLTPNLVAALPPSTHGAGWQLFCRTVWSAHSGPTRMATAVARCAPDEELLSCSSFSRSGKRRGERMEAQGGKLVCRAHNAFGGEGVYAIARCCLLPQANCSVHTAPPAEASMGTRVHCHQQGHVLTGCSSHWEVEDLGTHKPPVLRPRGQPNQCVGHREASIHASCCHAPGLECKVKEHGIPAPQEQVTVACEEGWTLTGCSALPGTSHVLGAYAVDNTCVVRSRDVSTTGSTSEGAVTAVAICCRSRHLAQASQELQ
Protocol: A solution containing 1 nM biotinylated PCSK9+2.5 nM Lance Streptavidin Europium (Strep-Eu) was made in 50 mM HEPES pH 7.4, 0.15 M NaCl, 5 mM CaCl2), 0.01% BSA, and 0.01% Surfactant P20. A separate solution containing 1920 nM of the AlexaFluor tagged cyclic peptide was made in the same buffer system. An Echo was used to transfer 0.075 ul of compound plus 0.675 ul of DMSO to each well of an assay plate followed by the addition of 15 ul of PCSK9+Stept-Eu and 15 ul of AF peptide. The final assay volume was 30.750 ul containing 0.5 nM PCSK9, 1.25 nM Strep-Eu, and 960 nM AF cyclic peptide. The reaction was incubated at room temperature for at least two hours prior to fluorescence measurements using an Envision Multilabel Reader. IC50 values were determined by fitting data to a sigmoidal dose-response curve using nonlinear regression. Ki was then calculated from the IC50 and the KD of AF cyclic peptide. Counts (B-counts) of the europium-labeled PCSK9 were followed to observe if compounds were adversely affecting PCSK9. A fall off of the B-counts likely indicated a false positive of inhibition. Data from this procedure was reported as “P=‘numerical value’ (nanomolar)”

[2] = target: human PCSK9 / human LDLR EGFa domain (Homo sapiens, UniProt Q8NBP7); assay: TR-FRET assay of inhibition of the PCSK9-LDLR protein-protein interaction; conditions: 20 nM human PCSK9, 20 nM human LDLR EGFa domain, 2 hours room temperature
Sequence of human PCSK9 / human LDLR EGFa domain (Q8NBP7 153-692): as above
Summary of the method: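 Half-maximal inhibitory concentrations came from 4-parameter fits of dose-response data. Proteins: biotinylated PCSK9, His-tagged LDLR EGFa, 20 nM each; labels 5 nM; 2 h, room temperature; buffer 50 mM HEPES, 150 mM NaCl, 5 mM CaCl2.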

PCSK9 [3] = target: T1, PCSK9; assay: PCSK9 Alexa FRET Standard assay (displacement of AlexaFluor647 tagged cyclic peptide Reagent A); conditions: 0.5 nM PCSK9, 20 nM AF cyclic peptide Reagent A
Protocol: A solution containing 1 nM biotinylated PCSK9+2.5 nM Lance Streptavidin Europium (Strep-Eu) was made in 50 mM HEPES pH 7.4, 0.15 M NaCl, 5 mM CaCl2), 0.01% BSA, and 0.01% Surfactant P20. A separate solution containing 40 nM of the AlexaFluor tagged cyclic peptide was made in the same buffer system. An Echo was used to transfer 0.750 ul of compound to an assay plate followed by the addition of 15 ul of PCSK9+Stept-Eu and 15 ul of AF peptide. The final assay volume was 30.750 ul containing 0.5 nM PCSK9, 1.25 nM Strep-Eu, and 20 nM AF cyclic peptide. The reaction was incubated at room temperature for at least two hours prior to fluorescence measurements using an Envision Multilabel Reader. IC50 values were determined by fitting data to a sigmoidal dose-response curve using nonlinear regression. Ki was then calculated from the IC50 and the KD of AF cyclic peptide. Counts (B-counts) of the europium-labeled PCSK9 were followed to observe if compounds were […]. A fall off of the B-counts likely indicated a false positive of inhibition. Data from this procedure was reported as “A=‘numerical value’ (nanomolar)”

C[C@@H]1NC(=O)[C@@H]2CCCN2C(=O)[C@H](Cc2ccc(C(C)(C)C)cc2)NC(=O)[C@H](Cc2c[nH]c3ccc(F)cc23)NC(=O)CNC(=O)[C@H](CCCCN)NC(=O)CCSCc2cccc(c2)CSC[C@@H](C(N)=O)NC(=O)[C@@H]2CCCN2C(=O)[C@H](Cc2ccc(O)cc2)NC1=O [Compound 016] ([Mpa]KG[Trp(5-F)][Phe(4-tBu)]PAYPC-NH2; linker 1-10 via mXylylene)
IC50 (PCSK9 [1]): 1 to 100 nM | IC50 [2]: 1 to 100 nM | IC50 (PCSK9 [3]): 1 to 100 nM

C[C@@H]1NC(=O)[C@@H]2CCCN2C(=O)[C@H](Cc2csc3ccccc23)NC(=O)[C@H](Cc2c[nH]c3ccc(F)cc23)NC(=O)CNC(=O)[C@H](CCCCN)NC(=O)CCSCc2cccc(c2)CSC[C@@H](C(N)=O)NC(=O)[C@@H]2CCCN2C(=O)[C@H](Cc2ccc(O)cc2)NC1=O [Compound 024] ([Mpa]KG[Trp(5-F)][Bta]PAYPC-NH2; linker 1-10 via mXylylene)
IC50 (PCSK9 [1]): 1 to 100 nM | IC50 [2]: 1 to 100 nM | IC50 (PCSK9 [3]): 1 to 100 nM

C[C@@H]1NC(=O)[C@@H]2CCCN2C(=O)[C@H](CC2CCCCC2)NC(=O)[C@H](Cc2c[nH]c3ccc(F)cc23)NC(=O)CNC(=O)[C@H](CCCCN)NC(=O)CCSCc2cccc(c2)CSC[C@@H](C(N)=O)NC(=O)[C@@H]2CCCN2C(=O)[C@H](Cc2ccc(O)cc2)NC1=O [Compound 025] ([Mpa]KG[Trp(5-F)][Cha]PAYPC-NH2; linker 1-10 via mXylylene)
IC50 (PCSK9 [1]): 1 to 100 nM | IC50 [2]: 1 to 100 nM | IC50 (PCSK9 [3]): 1 to 100 nM

C[C@@H]1NC(=O)[C@@H]2CCCN2C(=O)[C@H](CCC2CCCCC2)NC(=O)[C@H](Cc2c[nH]c3ccc(F)cc23)NC(=O)CNC(=O)[C@H](CCCCN)NC(=O)CCSCc2cccc(c2)CSC[C@@H](C(N)=O)NC(=O)[C@@H]2CCCN2C(=O)[C@H](Cc2ccc(O)cc2)NC1=O [Compound 026] ([Mpa]KG[Trp(5-F)][hCha]PAYPC-NH2; linker 1-10 via mXylylene)
IC50 (PCSK9 [1]): 100 to 500 nM | IC50 [2]: 1 to 100 nM | IC50 (PCSK9 [3]): 1 to 100 nM

C[C@@H]1NC(=O)CCSCc2cccc(c2)CSCCNC(=O)[C@@H]2CCCN2C(=O)[C@H](Cc2ccccc2)NC(=O)[C@H](C)NC(=O)[C@@H]2CCCN2C(=O)[C@H](Cc2c[nH]c3ccc(F)cc23)NC(=O)[C@H](Cc2c[nH]c3ccc(F)cc23)NC(=O)[C@@H](C)NC1=O [Compound 062] (cyclo(AFP[X1]A[dA][Trp(5-F)][Trp(5-F)]P))
IC50 (PCSK9 [1]): 1 to 100 nM | IC50 [2]: 1 to 100 nM | IC50 (PCSK9 [3]): 100 to 1000 nM

C[C@@H]1NC(=O)CCSCc2cccc(c2)CSCCNC(=O)[C@@H]2CCCN2C(=O)[C@H](Cc2ccc3ccccc3c2)NC(=O)[C@H](C)NC(=O)[C@@H]2CCCCN2C(=O)[C@H](Cc2c[nH]c3ccc(F)cc23)NC(=O)[C@H](Cc2c[nH]c3ccc(F)cc23)NC(=O)[C@@H](C)NC1=O [Compound 089] (cyclo([2Nal]P[X1]A[dA][Trp(5-F)][Trp(5-F)][Pip]A))
IC50 (PCSK9 [1]): 1 to 100 nM | IC50 [2]: 1 to 100 nM | IC50 (PCSK9 [3]): 1 to 100 nM

COc1ccc(C[C@@H]2NC(=O)[C@H]([C@@H](C)OC)NC(=O)[C@H]3CCCN3C(=O)[C@H]3Cc4cn(c5ccc(F)cc45)Cc4cn(nn4)-c4cc(cc(c4)CSCCC(=O)N[C@@H](C)C(=O)N[C@H](C)C(=O)N[C@@H](Cc4c[nH]c5ccc(F)cc45)C(=O)N3)CSCCNC(=O)[C@]3(C)CCCN3C2=O)cc1 [Compound 131]
IC50 (PCSK9 [1]): 1 to 100 nM | IC50 (PCSK9 [3]): 1 to 100 nM
